{"source": "patent US20100330029A1", "about": "“Cancer Treatments with Radiation and Immunocytokines” (Merck Patent GmbH, priority 2008, published 2010)", "key": {"[1]": {"system": "CT26-specific T-cells", "assay": "ELISPOT assay for IFNγ induction in splenocytes, CT26/KSA model", "type": "in vivo, mice", "details": "radiation followed by EMD521873, compared to either therapy alone", "method": "Enzyme-linked immunospot C (ELISPOT) assays for IFNγ induction in splenocytes were conducted by first coating ELISPOT plates with an anti-IFNγ antibody (murine IFNγ kit, BD Biosciences). Splenocytes from treated mice were added to the plates and incubated with an AH1:A5 peptide to stimulate IFNγ release from CT26-specific T-cells. Biotinylated IFNγ detection Ab and streptavidin-HRP were added to the plates. Resultant spots from individual IFNγ-producing lymphocytes were counted using a Zeiss® KS-ELISPOT plate reader."}, "[2]": {"system": "malignant melanoma", "assay": "study in cutaneous/subcutaneous malignant melanoma", "type": "in vivo", "details": "human melanoma; EMD521873 0.3 mg/kg and local radiation vs EMD521873 only", "method": "A study is performed to investigate the responses of cutaneous metastases in patients with stage IIIb-IV cutaneous/subcutaneous malignant melanoma to EMD521873 at the tumor site and in blood to EMD521873 in combination with local irradiation (25 Gy). The first treatment cycle with EMD521873 starts on day 1. Subsequent cycles are administered at 3-week intervals. Prior to the first dose of EMD521873, subjects are treated with two courses of local radiation (25 Gy) administered in fractions of 5 Gy on 5 consecutive days ([…]; and days −7 to −3) to different metastases.\nFor each patient, at least two cutaneous or subcutaneous lesions eligible for biopsy are selected for potential radiation (lesion A1 and lesion A2) and, if present, a third lesion (lesion A3) is also selected. A biopsy of a cutaneous/subcutaneous lesion (lesion A1) and blood sampling are performed at baseline (D-28). After 7 days, allowing for the necessary healing of the biopsy area, lesion A1 is irradiated (5×5 Gy) over 5 consecutive days starting on day −21 (D−21 to D−17). On day −7 (D−7) blood samples are withdrawn and a biopsy of the irradiated lesion A1 is taken. This tumor sample serves as an intraindividual control to assess the effect of radiation alone. On day −14, the pre-selected lesions A2 and A3 are also biopsied and blood drawn. […]"}, "[3]": {"system": "CD8 effector cells in the blood", "assay": "FACS analysis of blood, LLC dual tumor model", "type": "in vivo, mice", "details": "Experiment LLC-6; combination compared to either chemoradiation or EMD521873 alone", "method": "(§1) Immune effector cell populations in blood were analyzed by FACS. Blood was collected from the retro-orbital sinus of each mouse. Red blood cells were eliminated using lysis buffer. After blocking with rat IgG (1:50), samples were incubated with a 7-color cocktail of antibodies against CD4, CD8, CD25, CD44, CD62L, CD11b, and DX5. Samples were run on a FacsARIA and analyzed for various cell subpopulations.\n(§2) In another experiment, LLC tumors were established subcutaneously in both the leg and flank of the same animal. Animals were then treated with either cisplatin (4 mg/kg, d0) plus fractionated radiation given to the leg tumor (3.6 Gy/d, d0-4), i.v. EMD521873 alone (5 mg/kg, d7, 8, 9), or the combination of EMD521873 plus chemoradiation (Experiment LLC-6). Tumor growth and immune response in both the irradiated leg tumor and the non-irradiated flank tumor were monitored. […] CD8 effector cells were increased by approximately 4-fold in the blood with the combination compared to either chemoradiation or EMD521873 alone."}, "[4]": {"system": "CD8 cell infiltration in tumors", "assay": "immunohistochemical analysis of CD8 cell infiltration in LLC tumors", "type": "in vivo, mice", "details": "Experiment LLC-6; combination compared to the monotherapies", "method": "as §2"}, "[5]": {"system": "immune effector cell populations in blood", "assay": "FACS analysis of immune effector cell populations in blood, CT26/KSA model", "type": "in vivo, mice", "method": "as §1"}, "[6]": {"system": "T cell and T cell activation-associated genes in the tumor", "assay": "qPCR gene profiling of tumors, CT26/KSA model", "type": "in vivo, mice", "method": "Gene profiling of tumors was analyzed using excised tumor tissues placed in RNAlater® RNA stabilizing reagent upon harvest. Total RNA was prepared with an RNeasy® kit (Qiagen) and cDNA was prepared with the Superscript® III kit for qPCR (Life Technologies, Inc.). qPCR reactions were performed on an ABI7500 instrument in a standardized fashion and relative changes in gene expression were analyzed using the ddCt method (efficiency factor 95%). Housekeeping genes used for comparison included ACTB, B2M and HPRT1."}, "[7]": {"details": "radiation followed by EMD521873 (combination)"}}, "data": [{"substance": "dI-NHS76γ2(h)(FN>AQ)-ala-IL2(D20T) [EMD521873]", "values": [{"measurement": "increase in T cell response (ELISPOT, endogenous CT26 antigen)", "setting": "[1]", "result": "> 4", "unit": "fold"}, {"measurement": "tumor progression (PET or CT scan)", "setting": "[2]", "result": "reduced tumor progression"}, {"measurement": "CD8 effector cells increased in the blood", "setting": "[3]", "result": "approximately 4 fold"}, {"measurement": "CD8 cell infiltration enhanced, irradiated lesion", "setting": "[4]", "result": 9, "unit": "fold"}, {"measurement": "CD8 cell infiltration enhanced, non-irradiated lesion", "setting": "[4]", "result": 3.5, "unit": "fold"}, {"measurement": "CD4+CD25+ lymphocyte subpopulation in the blood", "setting": "[5]; [7]", "result": "increased"}, {"measurement": "increase in effector T cells in the blood", "setting": "[5]; radiation followed by EMD521873, compared to either therapy alone", "result": 4, "unit": "fold"}, {"measurement": "levels of FoxP3 gene expression in the tumor", "setting": "[6]; [7]", "result": "did not increase"}, {"measurement": "CD8, Granzyme B, and IFNγ gene expression increase in the tumor", "setting": "[6]; radiation followed by EMD521873, compared to either EMD521873 or radiation alone", "result": "3.5-4.6 fold"}]}]}
